Results as given in US7470815B1, “Selective neuronal nitric oxide synthase inhibitors” (Northwestern University, priority 2006, dated 2008).
Non-standard residues stand in square brackets, D forms with d. Residues, ends and D or L forms follow the SMILES beside them. dArg(NO2) = N=C(NCCC[C@@H](N)C(=O)O)N[N+](=O)[O-]

Legend:
recombinant rat nNOS [1] = target: T1, recombinant rat nNOS (Rattus norvegicus, UniProt P29476); experiment: NOS hemoglobin capture assay, inhibition of nNOS; type: biochemical; settings: Dixon analysis and method of Cornish and Bowden
T1 construct: made in house; host or cells: E. coli

recombinant rat nNOS [2] = target: T1, recombinant rat nNOS; settings: prior art compound; cited from earlier work

type of inhibition of nNOS (recombinant rat nNOS [1])	Structure (SMILES)	selectivity for nNOS over iNOS (recombinant rat nNOS [2])
competitive inhibition	N=C(NCCC[C@H](N)CNc1ccccc1CCN)N[N+](=O)[O-] [Compound 26, N-(4S)-{4-Amino-5-[2-(2-aminoethyl)phenylamino]-pentyl}-N′-nitroguanidine]	
	COC(=O)[C@@H](CCCN=C(N)N[N+](=O)[O-])NC(=O)[C@H](N)Cc1ccccc1 [D-Phe-D-Arg^NO2-OMe] (H-[dF]-[dArg(NO2)]-OMe)	1800 fold
